Results from PMC6886798, “Expression of myeloid Src-family kinases is associated with poor prognosis in AML and influences Flt3-ITD kinase inhibitor acquired resistance” (PLoS ONE, 2019).

Columns and labels:
Test in all cases: KINOMEscan
Format in all cases: binding
Conditions in all cases: 1.0 µM
MST2 = target: T1, MST2 (Homo sapiens, UniProt Q13188)
T1 construct: purchased Eurofins/DiscoverX KINOMEscan scanMAX
Description: (§1) Kinase retention to the immobilized ligand is then measured using quantitative real-time PCR for each kinase-specific DNA barcode.

VRK2 = target: T2, VRK2 (Homo sapiens, UniProt Q86Y07)
T2 construct: DNA tag (qPCR barcode); purchased Eurofins/DiscoverX KINOMEscan scanMAX
Description: as §1

MLK3 = target: T3, MLK3 (Homo sapiens, UniProt Q16584)
T3 construct: purchased Eurofins/DiscoverX KINOMEscan scanMAX
Description: as §1

ITK = target: T4, ITK (Homo sapiens, UniProt Q08881)
T4 construct: purchased Eurofins/DiscoverX KINOMEscan scanMAX
T4 sequence (Q08881 whole entry): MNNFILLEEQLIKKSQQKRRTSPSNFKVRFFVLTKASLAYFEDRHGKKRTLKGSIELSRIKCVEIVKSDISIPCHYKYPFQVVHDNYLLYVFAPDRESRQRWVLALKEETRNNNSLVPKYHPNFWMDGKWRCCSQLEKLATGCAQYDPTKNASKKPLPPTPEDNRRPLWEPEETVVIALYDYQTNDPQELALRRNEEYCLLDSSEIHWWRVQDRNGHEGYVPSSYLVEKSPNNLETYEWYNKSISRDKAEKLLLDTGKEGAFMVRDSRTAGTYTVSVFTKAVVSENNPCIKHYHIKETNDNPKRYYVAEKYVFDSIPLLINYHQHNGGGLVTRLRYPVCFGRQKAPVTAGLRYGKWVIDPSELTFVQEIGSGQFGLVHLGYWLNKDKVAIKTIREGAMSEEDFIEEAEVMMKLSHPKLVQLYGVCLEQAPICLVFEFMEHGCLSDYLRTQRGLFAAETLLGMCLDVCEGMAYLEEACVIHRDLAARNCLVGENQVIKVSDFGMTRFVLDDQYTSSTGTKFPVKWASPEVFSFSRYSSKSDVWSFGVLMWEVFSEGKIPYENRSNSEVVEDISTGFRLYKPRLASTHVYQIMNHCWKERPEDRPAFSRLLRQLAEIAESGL
Description: as §1

DAPK2 = target: T5, DAPK2 (Homo sapiens, UniProt Q9UIK4)
T5 construct: purchased Eurofins/DiscoverX KINOMEscan scanMAX
Description: as §1

NIK = target: T6, NIK (Homo sapiens, UniProt Q99558)
T6 construct: purchased Eurofins/DiscoverX KINOMEscan scanMAX
Description: as §1

YANK2 = target: T7, YANK2 (Homo sapiens, UniProt Q9NY57)
T7 construct: purchased Eurofins/DiscoverX (KINOMEscan scanMAX service)
Description: as §1

MUSK = target: T8, MUSK (Homo sapiens, UniProt O15146)
T8 construct: purchased Eurofins/DiscoverX KINOMEscan scanMAX
Description: as §1

MLK2 = target: T9, MLK2 (Homo sapiens, UniProt Q02779)
T9 construct: purchased Eurofins/DiscoverX KINOMEscan scanMAX
Description: as §1

ERN1 = target: T10, ERN1 (Homo sapiens, UniProt O75460)
T10 construct: purchased Eurofins/DiscoverX KINOMEscan scanMAX
T10 sequence (O75460 19-977): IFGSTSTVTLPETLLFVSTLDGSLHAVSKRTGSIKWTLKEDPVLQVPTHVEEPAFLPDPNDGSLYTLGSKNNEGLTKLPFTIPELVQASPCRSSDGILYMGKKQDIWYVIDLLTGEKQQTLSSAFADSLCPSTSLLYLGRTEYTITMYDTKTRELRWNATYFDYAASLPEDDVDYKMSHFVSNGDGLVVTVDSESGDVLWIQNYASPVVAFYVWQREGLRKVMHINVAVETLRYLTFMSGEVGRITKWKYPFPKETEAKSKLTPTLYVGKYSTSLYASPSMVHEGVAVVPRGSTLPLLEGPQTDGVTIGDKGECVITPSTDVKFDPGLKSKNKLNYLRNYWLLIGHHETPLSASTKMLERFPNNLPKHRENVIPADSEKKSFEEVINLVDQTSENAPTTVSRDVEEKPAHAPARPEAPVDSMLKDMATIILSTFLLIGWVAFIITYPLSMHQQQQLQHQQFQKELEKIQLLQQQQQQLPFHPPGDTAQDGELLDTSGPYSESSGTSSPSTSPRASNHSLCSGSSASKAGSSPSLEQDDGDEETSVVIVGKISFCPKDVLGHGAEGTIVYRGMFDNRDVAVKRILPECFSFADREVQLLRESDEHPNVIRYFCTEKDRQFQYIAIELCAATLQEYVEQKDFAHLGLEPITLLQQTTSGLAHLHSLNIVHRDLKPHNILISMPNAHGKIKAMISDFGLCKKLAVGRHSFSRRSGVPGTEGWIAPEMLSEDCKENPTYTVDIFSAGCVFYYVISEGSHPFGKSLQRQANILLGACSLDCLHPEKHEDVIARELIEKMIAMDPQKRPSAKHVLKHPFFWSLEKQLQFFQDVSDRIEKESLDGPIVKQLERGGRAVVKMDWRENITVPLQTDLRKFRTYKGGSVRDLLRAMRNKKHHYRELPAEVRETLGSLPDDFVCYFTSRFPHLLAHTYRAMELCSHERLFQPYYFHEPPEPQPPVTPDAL
Description: as §1

[1] = target: T11, RSK4(Kin.Dom.1-N-terminal) (Homo sapiens, UniProt Q9UK32)
T11 construct: RSK4(Kin.Dom.1-N-terminal); purchased Eurofins/DiscoverX KINOMEscan scanMAX
Description: as §1

ASK1 = target: T12, ASK1 (Homo sapiens, UniProt Q99683)
T12 construct: purchased Eurofins/DiscoverX KINOMEscan scanMAX
Description: as §1

ADCK4 = target: T13, ADCK4 (Homo sapiens, UniProt Q96D53)
T13 construct: purchased Eurofins/DiscoverX KINOMEscan scanMAX
Description: as §1

CSNK1G3 = target: T14, CSNK1G3 (Homo sapiens, UniProt Q9Y6M4)
T14 construct: purchased Eurofins/DiscoverX KINOMEscan scanMAX
Description: as §1

CDK9 = target: T15, CDK9 (Homo sapiens, UniProt P50750)
T15 construct: purchased Eurofins/DiscoverX KINOMEscan scanMAX
T15 sequence (P50750 whole entry): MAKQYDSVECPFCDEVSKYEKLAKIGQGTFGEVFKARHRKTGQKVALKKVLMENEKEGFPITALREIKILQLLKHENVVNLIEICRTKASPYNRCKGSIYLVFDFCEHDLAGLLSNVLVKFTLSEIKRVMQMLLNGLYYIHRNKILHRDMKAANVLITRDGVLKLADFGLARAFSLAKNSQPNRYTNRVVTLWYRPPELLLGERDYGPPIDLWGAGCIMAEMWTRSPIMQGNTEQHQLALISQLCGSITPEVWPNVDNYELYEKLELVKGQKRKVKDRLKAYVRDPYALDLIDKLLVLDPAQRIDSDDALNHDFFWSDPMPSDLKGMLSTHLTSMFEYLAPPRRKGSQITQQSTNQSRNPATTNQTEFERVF
Description: as §1

CSF1R-autoinhibited = target: T16, CSF1R-autoinhibited (Homo sapiens, UniProt P07333)
T16 construct: purchased Eurofins/DiscoverX KINOMEscan scanMAX
Description: as §1

BRSK2 = target: T17, BRSK2 (Homo sapiens, UniProt Q8IWQ3)
T17 construct: purchased Eurofins/DiscoverX KINOMEscan scanMAX
T17 sequence (Q8IWQ3 whole entry): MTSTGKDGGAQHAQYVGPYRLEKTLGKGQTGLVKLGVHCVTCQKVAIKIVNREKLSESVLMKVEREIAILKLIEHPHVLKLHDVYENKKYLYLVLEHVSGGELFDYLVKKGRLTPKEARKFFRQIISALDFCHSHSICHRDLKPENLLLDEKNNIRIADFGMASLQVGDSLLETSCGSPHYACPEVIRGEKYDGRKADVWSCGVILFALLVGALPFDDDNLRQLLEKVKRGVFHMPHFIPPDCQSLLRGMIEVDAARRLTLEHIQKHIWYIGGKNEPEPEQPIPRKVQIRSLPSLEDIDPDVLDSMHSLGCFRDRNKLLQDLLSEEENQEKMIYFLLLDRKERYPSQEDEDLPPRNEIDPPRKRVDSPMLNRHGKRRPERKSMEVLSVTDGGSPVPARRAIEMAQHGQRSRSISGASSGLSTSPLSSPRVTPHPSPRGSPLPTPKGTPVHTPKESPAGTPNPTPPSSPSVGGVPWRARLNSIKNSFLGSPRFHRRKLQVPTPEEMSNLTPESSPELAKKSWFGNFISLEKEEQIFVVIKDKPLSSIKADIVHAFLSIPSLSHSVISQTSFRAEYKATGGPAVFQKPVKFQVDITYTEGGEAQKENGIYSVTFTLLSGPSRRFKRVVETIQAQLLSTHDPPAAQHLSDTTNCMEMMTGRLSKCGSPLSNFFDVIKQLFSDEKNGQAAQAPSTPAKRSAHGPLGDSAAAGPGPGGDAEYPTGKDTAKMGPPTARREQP
Description: as §1

AAK1 = target: T18, AAK1 (Homo sapiens, UniProt Q2M2I8)
T18 construct: purchased Eurofins/DiscoverX KINOMEscan scanMAX
Description: as §1

CLK2 = target: T19, CLK2 (Homo sapiens, UniProt P49760)
T19 construct: purchased Eurofins/DiscoverX KINOMEscan scanMAX
Description: as §1

ABL2 = target: T20, ABL2 (Homo sapiens, UniProt P42684)
T20 construct: purchased Eurofins/DiscoverX KINOMEscan scanMAX
Description: as §1

PIK4CB = target: T21, PIK4CB (Homo sapiens, UniProt Q9UBF8)
T21 construct: purchased Eurofins/DiscoverX KINOMEscan scanMAX
Description: as §1

PFCDPK1(P.falciparum) = target: T22, PFCDPK1(P.falciparum) (Plasmodium falciparum, UniProt P62344)
T22 construct: purchased Eurofins/DiscoverX KINOMEscan scanMAX
Description: as §1

DMPK = target: T23, DMPK (Homo sapiens, UniProt Q09013)
T23 construct: purchased Eurofins/DiscoverX KINOMEscan scanMAX
Description: as §1

CSF1R = target: T24, CSF1R (Homo sapiens, UniProt P07333)
T24 construct: purchased Eurofins/DiscoverX KINOMEscan scanMAX
Description: as §1

ACVRL1 = target: T25, ACVRL1 (Homo sapiens, UniProt P37023)
T25 construct: purchased Eurofins/DiscoverX KINOMEscan scanMAX
Description: as §1

TRKB = target: T26, TRKB (Homo sapiens, UniProt Q16620)
T26 construct: purchased Eurofins/DiscoverX KINOMEscan scanMAX
Description: as §1

[2] = target: T27, RSK2(Kin.Dom.2-C-terminal) (Homo sapiens, UniProt P51812)
T27 construct: RSK2(Kin.Dom.2-C-terminal); purchased Eurofins/DiscoverX KINOMEscan scanMAX
Description: as §1

CIT = target: T28, CIT (Homo sapiens, UniProt O14578)
T28 construct: purchased Eurofins/DiscoverX KINOMEscan scanMAX
Description: as §1

SIK2 = target: T29, SIK2 (Homo sapiens, UniProt Q9H0K1)
T29 construct: purchased Eurofins/DiscoverX KINOMEscan scanMAX
T29 sequence (Q9H0K1 whole entry): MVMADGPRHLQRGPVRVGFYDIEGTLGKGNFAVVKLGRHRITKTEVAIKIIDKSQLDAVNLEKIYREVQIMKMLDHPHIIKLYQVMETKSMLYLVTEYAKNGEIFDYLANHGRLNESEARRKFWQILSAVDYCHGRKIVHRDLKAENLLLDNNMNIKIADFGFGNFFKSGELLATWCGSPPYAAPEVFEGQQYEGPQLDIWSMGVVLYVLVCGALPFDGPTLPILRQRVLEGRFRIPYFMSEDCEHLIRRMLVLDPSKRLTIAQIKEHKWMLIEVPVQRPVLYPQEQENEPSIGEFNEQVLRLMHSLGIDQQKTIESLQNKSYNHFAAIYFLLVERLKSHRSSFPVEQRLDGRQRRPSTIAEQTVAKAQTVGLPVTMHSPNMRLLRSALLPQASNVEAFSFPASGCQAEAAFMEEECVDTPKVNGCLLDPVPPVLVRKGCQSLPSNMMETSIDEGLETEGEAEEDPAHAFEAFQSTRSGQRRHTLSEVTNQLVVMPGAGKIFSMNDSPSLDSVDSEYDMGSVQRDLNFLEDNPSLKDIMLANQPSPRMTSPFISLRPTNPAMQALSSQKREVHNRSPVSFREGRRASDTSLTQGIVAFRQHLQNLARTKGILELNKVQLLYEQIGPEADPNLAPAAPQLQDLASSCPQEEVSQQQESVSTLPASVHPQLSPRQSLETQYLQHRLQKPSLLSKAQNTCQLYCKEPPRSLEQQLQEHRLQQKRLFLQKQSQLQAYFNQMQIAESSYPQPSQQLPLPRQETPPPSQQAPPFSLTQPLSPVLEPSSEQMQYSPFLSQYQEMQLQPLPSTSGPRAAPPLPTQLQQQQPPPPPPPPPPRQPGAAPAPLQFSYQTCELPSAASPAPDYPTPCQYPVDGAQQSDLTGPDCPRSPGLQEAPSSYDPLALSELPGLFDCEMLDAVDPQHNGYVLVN
Description: as §1

PRKD1 = target: T30, PRKD1 (Homo sapiens, UniProt Q15139)
T30 construct: purchased Eurofins/DiscoverX KINOMEscan scanMAX
Description: as §1

PIK3CB = target: T31, PIK3CB (Homo sapiens, UniProt P42338)
T31 construct: purchased Eurofins/DiscoverX KINOMEscan scanMAX
Description: as §1

PCTK2 = target: T32, PCTK2 (Homo sapiens, UniProt Q00537)
T32 construct: purchased Eurofins/DiscoverX KINOMEscan scanMAX
Description: as §1

PAK1 = target: T33, PAK1 (Homo sapiens, UniProt Q13153)
T33 construct: purchased Eurofins/DiscoverX KINOMEscan scanMAX
T33 sequence (Q13153 whole entry): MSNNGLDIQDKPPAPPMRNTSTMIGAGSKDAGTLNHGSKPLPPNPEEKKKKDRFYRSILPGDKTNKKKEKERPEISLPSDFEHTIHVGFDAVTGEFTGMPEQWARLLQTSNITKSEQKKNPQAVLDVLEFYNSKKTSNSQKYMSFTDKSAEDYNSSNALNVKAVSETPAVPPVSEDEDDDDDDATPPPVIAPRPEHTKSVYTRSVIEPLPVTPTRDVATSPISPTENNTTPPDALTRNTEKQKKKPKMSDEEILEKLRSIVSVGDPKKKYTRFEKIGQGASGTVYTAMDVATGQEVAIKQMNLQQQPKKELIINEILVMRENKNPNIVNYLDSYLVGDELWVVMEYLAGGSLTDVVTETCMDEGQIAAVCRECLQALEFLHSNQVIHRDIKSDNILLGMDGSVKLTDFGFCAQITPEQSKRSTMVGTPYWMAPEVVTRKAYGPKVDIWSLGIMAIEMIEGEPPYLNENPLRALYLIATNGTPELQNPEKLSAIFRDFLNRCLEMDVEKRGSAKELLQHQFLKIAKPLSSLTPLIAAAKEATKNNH
Description: as §1

IKK-alpha = target: T34, IKK-alpha (Homo sapiens, UniProt O15111)
T34 construct: purchased Eurofins/DiscoverX KINOMEscan scanMAX
Description: as §1

[3] = target: T35, ABL1(M351T)-phosphorylated (Homo sapiens, UniProt P00519, M351T)
T35 construct: purchased Eurofins/DiscoverX KINOMEscan scanMAX
Description: as §1

KIT(V559D) = target: T36, KIT(V559D) (Homo sapiens, UniProt P10721, V559D)
T36 construct: purchased Eurofins/DiscoverX KINOMEscan scanMAX
Description: as §1

LTK = target: T37, LTK (Homo sapiens, UniProt P29376)
T37 construct: purchased Eurofins/DiscoverX KINOMEscan scanMAX
Description: as §1

HIPK3 = target: T38, HIPK3 (Homo sapiens, UniProt Q9H422)
T38 construct: purchased Eurofins/DiscoverX KINOMEscan scanMAX
Description: as §1

TNIK = target: T39, TNIK (Homo sapiens, UniProt Q9UKE5)
T39 construct: purchased Eurofins/DiscoverX KINOMEscan scanMAX
Description: as §1

BIKE = target: T40, BIKE (Homo sapiens, UniProt Q9NSY1)
T40 construct: purchased Eurofins/DiscoverX KINOMEscan scanMAX
Description: as §1

MARK2 = target: T41, MARK2 (Homo sapiens, UniProt Q7KZI7)
T41 construct: purchased Eurofins/DiscoverX KINOMEscan scanMAX
T41 sequence (Q7KZI7 whole entry): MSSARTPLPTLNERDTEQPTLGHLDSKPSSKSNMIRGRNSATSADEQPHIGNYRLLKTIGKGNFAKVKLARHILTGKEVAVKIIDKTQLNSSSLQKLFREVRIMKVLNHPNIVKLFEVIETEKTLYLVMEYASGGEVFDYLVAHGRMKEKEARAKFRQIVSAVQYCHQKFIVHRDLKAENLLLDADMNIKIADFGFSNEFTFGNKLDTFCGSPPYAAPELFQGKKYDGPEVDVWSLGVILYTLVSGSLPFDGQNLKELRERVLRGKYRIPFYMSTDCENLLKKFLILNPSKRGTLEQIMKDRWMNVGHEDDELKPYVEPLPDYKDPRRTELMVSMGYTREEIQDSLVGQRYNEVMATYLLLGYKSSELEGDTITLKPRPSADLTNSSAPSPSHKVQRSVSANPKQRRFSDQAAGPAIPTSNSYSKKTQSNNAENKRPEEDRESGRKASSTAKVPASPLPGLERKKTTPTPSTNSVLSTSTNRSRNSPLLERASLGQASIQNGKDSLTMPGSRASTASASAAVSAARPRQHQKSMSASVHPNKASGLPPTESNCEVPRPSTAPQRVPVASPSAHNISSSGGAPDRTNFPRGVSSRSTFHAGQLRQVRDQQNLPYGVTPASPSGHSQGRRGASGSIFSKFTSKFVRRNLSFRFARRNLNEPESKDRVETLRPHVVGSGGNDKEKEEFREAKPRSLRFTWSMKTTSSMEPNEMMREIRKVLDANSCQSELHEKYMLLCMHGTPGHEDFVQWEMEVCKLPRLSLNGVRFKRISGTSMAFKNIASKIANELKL
Description: as §1

## CN1CCN(C2CCC(n3cc(-c4ccc(Oc5ccccc5)cc4)c4c(N)ncnc43)CC2)CC1 (centres unmarked) [A-419259]
MST2
  % Control: 82%
VRK2
  % Control: 39%
MLK3
  % Control: 100%
ITK
  % Control: 14%
DAPK2
  % Control: 98%
NIK
  % Control: 100%
YANK2
  % Control: 30%
MUSK
  % Control: 100%
MLK2
  % Control: 29%
ERN1
  % Control: 82%
[1]
  % Control: 68%
ASK1
  % Control: 100%
ADCK4
  % Control: 100%
CSNK1G3
  % Control: 100%
CDK9
  % Control: 65%
CSF1R-autoinhibited
  % Control: 57%
BRSK2
  % Control: 10%
AAK1
  % Control: 100%
CLK2
  % Control: 100%
ABL2
  % Control: 4.9%
PIK4CB
  % Control: 83%
PFCDPK1(P.falciparum)
  % Control: 0%
DMPK
  % Control: 100%
CSF1R
  % Control: 5.8%
ACVRL1
  % Control: 100%
TRKB
  % Control: 29%
[2]
  % Control: 100%
CIT
  % Control: 79%
SIK2
  % Control: 19%
PRKD1
  % Control: 63%
PIK3CB
  % Control: 64%
PCTK2
  % Control: 59%
PAK1
  % Control: 55%
IKK-alpha
  % Control: 90%
[3]
  % Control: 1.6%
KIT(V559D)
  % Control: 0.05%
LTK
  % Control: 36%
HIPK3
  % Control: 91%
TNIK
  % Control: 100%
BIKE
  % Control: 80%
MARK2
  % Control: 82%
